Source: patent EP4722365A1, “DOUBLE-STRANDED NUCLEOTIDE COMPOUND FOR METABOLIC DISEASES AND USE THEREOF” (Visirna Therapeutics (Suzhou) Co., Ltd., priority 2023, dated 2024)

Legend:
[1] = system: DGAT2; experiment: In-vitro inhibitory activity test on target gene DGAT2 in Huh7 cells (siRNA transfection, mRNA by qPCR); format: cell-based, human; settings: Table 3.3
Protocol: The test compound was prepared into a 20 µM mother liquor with PBS.
Huh7 cells. Huh7 cells were cultured in DMEM medium (Gibco article number 11965-092) containing 10% fetal bovine serum (FBS, ExCell Bio article number FSP500), 1% glutamine (GlutaMAX, Gibco article number 35050061), 1% NEAA (gibco article number 11140050), and 1% penicillin-streptomycin (HyClone article number SV30010).
Huh7 cells (2 × 10^4 cells/well) were inoculated into a 96-well plate, and siRNA was transfected into the cells while plating. […] At the same time, a compound-free control group containing RNAiMAX was set up.
24 hrs after transfection, the medium was removed and the cells were collected for RNA extraction. Total RNA was extracted by using RNeasy® 96 Kit (QIAGEN-74182) according to the instructions for use of the kit. cDNA was synthesized by using FastKing RT Kit (with gDNase) (Tiangen-KR116-02) according to the instructions.
The target cDNA was detected by qPCR, and GAPDH cDNA as an internal control was detected in parallel. 8 µL of prepared PCR reaction solution and 2 µL of sample cDNA were added into a 384 well plate. […]
The expression level of the target gene mRNA in each sample was calculated by ΔΔCt relative quantitative method. […]
GraphPad Prism software was used for plotting and analysis, and the inhibition rate was expressed as mean ± SD.

[2] = system: hDGAT2; experiment: Mouse model receiving hydrodynamic injection of DGAT2 plasmid via tail vein (Example 5, liver mRNA qPCR); format: in vivo; settings: 3mpk subcutaneously day 0, HDI day 14, BALB/c mice
Protocol: BALB/c mice, female, 6-7 weeks old.
pcDNA-DGAT2 plasmid, having a concentration of 2 µg/µL, diluted with physiological saline for later use.
The hydrodynamic injection scheme of DGAT2 plasmid DNA via tail vein, the administration and the sample collection method were as follows.
Treatment with compound: The day of administration to mice was defined as day 0, the day before it was day -1, the day after it was day 1, and so on. On day 0, the mice were injected subcutaneously with 5 mL/kg of the solvent or the test compound, at a dosage of 3mpk.
Hydrodynamic injection of DGAT2 plasmid DNA solution into mice via tail vein: On day 4 or 14, the plasmid DNA was prepared with normal saline before injection, and stored at 4°C until use. All mice were injected with the plasmid DNA solution in a volume of 8% of the body weight (injection volume (mL)= body weight of mice (g) x 8%) in 5 seconds via the tail vein, and the weight of plasmid injected into each mouse was 10 µg.
Endpoint of the experiment and collection of liver samples: On day 5 or 15, that is, 24 hrs after the hydrodynamic injection of DGAT2 plasmid via the tail vein, all mice were euthanized by CO2 inhalation. After euthanasia, blood samples were collected from the heart and liver samples were collected. 2 liver tissues of about 70 mg were immersed in RNAlater®, and incubated overnight at 4 °C. The supernatant was discarded and the remainder was transferred to a freezer at -80°C, for mRNA detection later.
RNA in the liver was extracted with Trizol. The method was briefly described as follows: 50-70 mg of liver tissue and 1.2 mL of Trizol were homogenized with Qiagen Tissue Lyser II at 26 Hz for 2 min and lyzed at room temperature for 5 min. 1 mL of the supernatant was taken, added to 200 uL of chloroform, vigorously shaken for 15 s, allowed to stand for 3 min, and centrifuged. The supernatant was collected, added with an equal volume of isopropanol, and stood overnight at -20°C for precipitation. The precipitate was washed twice with 70% , and dissolved in water without RNase. The concentration of the RNA sample was determined by Nanodrop ONE and diluted to 400 ng/uL with water without RNase for reverse transcription.
The experimental steps of reverse transcription could be made reference to the instruction of FastKing cDNA first strand synthesis kit (genome clean). Briefly, a gDNA removal mixture was prepared according to Table 6. The mixture (5 µL/sample) and 400 ng/µL RNA sample were added to a 96-well PCR reaction plate, incubated at 42°C for 3 min, and cooled on ice. A mixture for reverse transcription was prepared according to Table 7. The reverse transcription mixture (10 µL/sample) and the DNA removal product of the previous step were added to a 96-well PCR reaction plate, for reverse transcription. Reaction conditions: 42°C for 15 min; and 95°C for 3 min. The cDNA was stored at 4°C for further analysis. Table 6. Ingredients for gDNA-removal reaction
Reaction conditions: 95°C for 10 min; and 40 cycles of 95°C for 15 s, and 60°C for 1 min. Table 8. Ingredients for qPCR Reaction (DGAT2)
The expression of the target gene in each sample was analyzed by relative quantification using ΔΔCt method. In this method, the Ct difference (ΔCt) between the target gene (DGAT2) and the internal reference gene (Neo) was determined, and the ΔCt value of the sample treated with the compound was compared with that of the control group.
The formula is: ΔCt = average Ct value of target gene−average Ct value of reference gene. [formula] [formula]
Data analysis: The data are expressed as the average of each group of mouse samples ± standard error. Unless otherwise specified, n=4 or 5. Student's t test was used for statistical analysis. Table 10.1 Test for evaluating the in-vivo inhibitory activity of siRNA compounds on target gene DGAT2 in mice model receiving hDGAT2 HDI 5 days after administration

dS319: sense (invAb)*acaccauaGfAfCfuauuugcuua[L96]; anti-sense Vpu*Af*a*GfcAfaauagUfcUfaUfgGfuGf* u
IC50 [1]: 0.0163 nM
Average inhibition rate, % Day 1 after HDI (day 15 after administration) [2]: 91.79%
